According to patent US5656591A, “Antimicrobial agents and method for treating products therewith” (Morinaga Milk Industry Co., Ltd., priority 1992, dated 1997):

How the values were obtained:
[1] = tested on: Staphylococcus aureus (JCM-2151); assay: Viability assay (survival rate) in cow's milk medium; format: cell-based; set-up: key to survival rate: % of control colony count 1 (control colony count 2 at peptide 0); conditions: for antimicrobial activity of the compound added without antimicrobial peptide or lactoferrin hydrolysate (in words): compound alone; for effect of the coexisting compound on the antimicrobial activity of the lactoferrin hydrolysate (in words): with lactoferrin hydrolysate 1
Procedure: The colonies grown on the culture medium were scraped by a platinum loop and cultivated in 1% peptone (by Difco Company) culture medium for several hours at 37° C., and the resultant microbial culture at logarithmic phase was used as the preculture in a serial concentration of 3×10^8 /ml.
A quantity of the resultant solutions of the samples were selectively mixed with a quantity of the basal medium, thereby test media for the respective tests were prepared in the combinations and eventual concentrations as specified in the respective tests.
Utilizing the samples (5), (7), (8), (9), (10), (14), (15), (17), (18) and (19), test media were prepared in the same manner as in the preparation of the test media containing sample (3) and the like, except that the aqueous solution (in the cases of samples (5) and (7), aqueous suspensions) were not dealt with sterilization filters.
To 2 ml aliquots of test media prepared in (3-1) (supra), […] aliquots of the preculture of Staphylococcus aureus prepared in (1) (2. Method, supra) were added, then incubated at 37° C. for 1 hour, 200 μl aliquots of the resultant cultures were taken out and diluted with 1% peptone solution in a series of 10^n respectively, 110 μl aliquots of the resultant dilution series were spread onto plates of standard agar culture medium, and after incubation at 37° C. for 24 hours the number of colonies grown on the plates were counted (Test. Colony Count).
Control coloney counts 1 were determined in the same manner as in the determination of the test coloney counts, except that […] aliquots of the preculture of Staphylococcus aureus prepared in (1) (2. Method, supra) were added to 2 ml aliquots of the respective control media 1 prepared in (3-2) (supra). Furthermore, control coloney counts 2 were determined in the same manner as in the determination of the test coloney counts, except that […] aliquots of the preculture of Staphylococcus aureus prepared in (1) (supra) were added to 2 ml aliquots of the respective control media 1 prepared in (3-2) (supra).
Survival rate 1=(Test Colony Count/Control Colony Count 1)×100
Survival rate 2=(Control Colony Count 2/Control Colony Count 1)×100
(Note: In the tables shown hereinafter, vulues of survival rate 2 are indicated in the row where the concentration of antimicrobial peptide or lactoferrin hydrolysate is 0.)

[2] = tested on: methicillin-resistant Staphylococcus aureus (wild type); assay: Viability assay in Mueller-Hington Broth on antibiotics-resistant microorganism; format: cell-based
Procedure: Precultures of test microorganisms to be used in the tests described hereunder were prepared in such a manner that: from the frozen preservation of dispersions of test microorganisms, a loop of the respective strains of the microorganisms were taken out and spread onto TRI PETIT CASE SOYA AGAR MEDIA (by BBL Company), and incubated at 37° C. for 16 hours; the colonies grown on the culture media were scraped by a platinum loop and cultivated in 2.1% Mueller-Hington Broth (by Difco Company) respectively for several hours at 37° C. The resultant microbial cultures at logarithmic phase in 3×10^8 /ml of microbial concentration were used as the precultures.
The test media to be used in the respective tests were prepared in such a manner that: aqueous solutions in a predetermined concentration of the lactoferrin hydrolysates or the lactoferrin-derived antimicrobial peptides of (1) and (2) in Preparation of Samples (supra), as well as the samples of antibiotics of (3) (supra) were respectively sterilized with filters (by Advantec Company); then a quantity of the resultant solutions of respective samples were selectively added to a quantity of basal medium (Mueller-Hington Broth) prepared in the eventual concentration of 2.1%, thereby combinations of the samples and their concentrations in the respective test media were adjusted as specified in the respective tests. […]

[3] = with antimicrobial peptide Seq. ID No. 26
[4] = with antimicrobial peptide Seq. ID No. 27

Row | Compound | antimicrobial activity of the compound added without antimicrobial peptide or lactoferrin hydrolysate (in words) [1] | effect of the coexisting compound on the antimicrobial activity of the antimicrobial peptide (in words) [1, 3] | effect of the coexisting compound on the antimicrobial activity of the lactoferrin hydrolysate (in words) [1] | also measured
1 | OCC(O)CO [glycerol, Glycerol] | no antimicrobial activity was observed | augments the antimicrobial activity of the peptide |  | 
2 | N[C@@H](CS)C(=O)O [L-cysteine, L-Cysteine] | antimicrobial activity was low |  |  | effect of the coexisting compound on the antimicrobial activity of the antimicrobial peptide (in words) [1, 4]: augments the antimicrobial activity of the peptide
3 | CC(O)CO (centres unmarked) [propylene glycol, Propylene Glycol] | no antimicrobial activity was observed | augmented the antimicrobial activity of the peptide |  | 
4 | C[C@H](CCC(=O)O)[C@H]1CC[C@H]2[C@@H]3[C@H](O)C[C@@H]4C[C@H](O)CC[C@]4(C)[C@H]3C[C@H](O)[C@]12C [cholic acid, Cholic Acid] | no antimicrobial activity was observed | further augments the antimicrobiaI activity of the peptide | augments the antimicrobial activity of the lactoferrin hydrolysate 1 | survival rate ([1]; Test 22: peptide 0, 1-monolauroyl-rac-glycerol 0, cholic acid 1 mg/ml): 92%
5 | CCCCCCCC(=O)OCC(O)CO (racemic) [monocapryloyl-glycerol, 1-Monocapryloyl-rac-Glycerol] | no antimicrobial activity was observed | augments the antimicrobial activity of the peptide |  | 
6 | O=C1O[C@H]([C@@H](O)CO)C(O)=C1O [ascorbic acid, Ascorbic Acid] | no antimicrobial activity was observed |  | augments the antimicrobial activity of the lactoferrin hydrolysate 1 | effect of the coexisting compound on the antimicrobial activity of the antimicrobial peptide (in words) [1, 4]: augments the antimicrobial activity of the peptide
7 | OC[C@H]1O[C@@H]2O[C@H]3[C@H](O)[C@@H](O)[C@@H](O[C@H]4[C@H](O)[C@@H](O)[C@@H](O[C@H]5[C@H](O)[C@@H](O)[C@@H](O[C@H]6[C@H](O)[C@@H](O)[C@@H](O[C@H]7[C@H](O)[C@@H](O)[C@@H](O[C@H]8[C@H](O)[C@@H](O)[C@@H](O[C@H]1[C@H](O)[C@H]2O)O[C@@H]8CO)O[C@@H]7CO)O[C@@H]6CO)O[C@@H]5CO)O[C@@H]4CO)O[C@@H]3CO [β-cyclodextrin, β-Cyclodextrin] | no antimicrobial activity was observed | augments the antimicrobial activity of the peptide |  | survival rate ([1]; Test 4: peptide 0, β-cyclodextrin 0.1 mg/ml): 100; survival rate ([1]; Test 4: peptide 0, β-cyclodextrin 1 mg/ml): 109; survival rate ([1]; Test 4: peptide 0, β-cyclodextrin 2.5 mg/ml): 88
8 | tocopherol | no antimicrobial activity was observed | augments the antimicrobial activity of the peptide |  | survival rate ([1]; Test 3: peptide 0, tocopherol 0.1 mg/ml): 101; survival rate ([1]; Test 3: peptide 0, tocopherol 0.5 mg/ml): 113; survival rate ([1]; Test 3: peptide 0, tocopherol 1 mg/ml): 112
9 | O=C([O-])CN(CCN(CC(=O)[O-])CC(=O)O)CC(=O)O.[Na+].[Na+] [EDTA.Na2, EDTA·Na2] | no antimicrobial activity was observed |  | augments the antimicrobial activity of the lactoferrin hydrolysate | survival rate ([1]; Test 9: lactoferrin hydrolysate 0, EDTA.Na2 0.1 mg/ml): 122; survival rate ([1]; Test 9: lactoferrin hydrolysate 0, EDTA.Na2 1 mg/ml): 115; survival rate ([1]; Test 9: lactoferrin hydrolysate 0, EDTA.Na2 5 mg/ml): 101
10 | CCO [ethyl alcohol, Ethyl Alcohol] | no antimicrobial activity was observed | potentiates the antimicrobial activity of the peptide |  | 
11 | O=C(O)CC(O)(CC(=O)O)C(=O)O [citric acid, Citric Acid] |  |  | augments the antimicrobial activity of the lactoferrin hydrolysate 1 | 
12 | CCCCCCCCCCCCCCCCCC(=O)OCC(O)CO (racemic) [1-monostearoyl-rac-glycerol] | no antimicrobial activity was observed | augments the antimicrobial activity of the antimicrobial peptide |  | survival rate ([1]; Test 19: peptide 0, 1-monostearoyl-rac-glycerol 0.5 mg/ml): 116%; survival rate ([1]; Test 19: peptide 0, 1-monostearoyl-rac-glycerol 1 mg/ml): 133%; survival rate ([1]; Test 19: peptide 0, 1-monostearoyl-rac-glycerol 2 mg/ml): 98%
13 | Polyphosphoric Acid | no antimicrobial activity was observed |  | augments the antimicrobial activity of the lactoferrin hydrolysate 1 | survival rate ([1]; Test 12: lactoferrin hydrolysate 0, polyphosphoric acid 0.1 mg/ml): 140; survival rate ([1]; Test 12: lactoferrin hydrolysate 0, polyphosphoric acid 1 mg/ml): 124; survival rate ([1]; Test 12: lactoferrin hydrolysate 0, polyphosphoric acid 5 mg/ml): 111
14 | CN(C)c1ccc(O)c2c1C[C@H]1C[C@H]3[C@H](N(C)C)C(O)=C(C(N)=O)C(=O)[C@@]3(O)C(O)=C1C2=O [minomycin] |  |  |  | survival rate ([2]; Test 24: peptide 0, minomycin 10 μg/ml): 32%; survival rate ([2]; Test 24: peptide 0, minomycin 50 μg/ml): 5.2%
15 | CCCCCCCCCCCCCC(=O)OCC(O)CO (racemic) [1-monomyristoyl-rac-glycerol, 1-monomyristoyl-rac-Glycerol] | the antimicrobial activity is low | augmented the antimicrobial activity of the peptide |  | 
